Source: patent US10501460B2, “Heterocyclic compounds and uses thereof” (Plexxikon Inc., priority 2013, dated 2019)

Assays:
MV-4-11 = assay: Oncology cell growth assay MV-4-11 (CellTiter Glo, 72 hours); assay type: cell-based; details: Homo sapiens, MV4-11, 72 h; MV-4-11 cell growth inhibitory activity, 3d
Procedure, shortened: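 MV-4-11 cells (MLL-AF4 AML) exposed 72 h to 8-point 1:3 titration, top final 10 μM, 0.2% DMSO. CellTiter Glo luminescence as cell-number readout, normalized to DMSO controls; pIC50 from four-parameter fit.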

bromodomain = assay: Bromodomain cell assays of Example 40 (at least one of them); assay type: cell-based; details: in at least one of the bromodomain cell assays described in Example 40
Procedure, shortened: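 Growth inhibition: 3000 MV-4-11, MOLM-13, MM.1S or neuroblastoma cells/well got an 8-point 1:3 series from 10 μM top (0.2% DMSO) for 72 h, then CellTiter-Glo luminescence. Myc reporter: MV-4-11 with E-box firefly luciferase, 24 h exposure, One-Glo luminescence plus CellTiter-Fluo cell count. pIC50 from four-parameter fit.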

Row | Compound | IC50 (MV-4-11) [µM] | IC50 (bromodomain) [µM]
1 | C=CCn1cc(-c2cn(S(=O)(=O)C(C)CC)c3cc(-c4c(C)noc4C)cnc23)cn1 (centres unmarked) [P-0138, 4-[3-(1-allylpyrazol-4-yl)-1-sec-butylsulfonyl-pyrrolo[3,2-b]pyridin-6-yl]-3,5-dimethyl-isoxazole] | ≤ 1 | < 10
2 | COC(c1c(F)cccc1Cl)c1c[nH]c2ncc(-c3c(C)noc3C)cc12 (centres unmarked) [P-0014, 4-[3-[(2-chloro-6-fluoro-phenyl)-methoxy-methyl]-1H-pyrrolo[2.3-b]pyridin-5-yl]-3,5-dimethyl-isoxazole] | ≤ 1 | < 10
3 | Cc1noc(C)c1-c1cnc2c(-c3cnn(C)c3)cn(Cc3ccccc3F)c2c1 [P-0172, 4-[1-[(2-fluorophenyl)methyl]-3-(1-methylpyrazol-4-yl)pyrrolo[3,2-b]pyridin-6-yl]-3,5-dimethyl-isoxazole] | ≤ 1 | < 10
4 | Cc1noc(C)c1-c1cnc2c(I)cn(S(=O)(=O)c3ccccc3)c2c1 [P-0076, 4-[1-(benzenesulfonyl)-3-iodo-pyrrolo[3,2-b]pyridin-6-yl]-3,5-dimethyl-isoxazole] | ≤ 1 | < 10
5 | Cc1noc(C)c1-c1cnc2c(-c3cnn(C)c3)cn(S(=O)(=O)c3ccc(F)cc3)c2c1 [P-0123, 4-[1-(4-fluorophenyl)sulfonyl-3-(1-methylpyrazol-4-yl)pyrrolo[3,2-b]pyridin-6-yl]-3,5-dimethyl-isoxazole] | ≤ 1 | < 10
6 | Cc1noc(C)c1-c1cnc2c(-c3cnn(C)c3)cn(C(C(=O)O)c3ccccc3)c2c1 (centres unmarked) [P-0206, 2-[6-(3,5-dimethylisoxazol-4-yl)-3-(1-methylpyrazol-4-yl)pyrrolo[3,2-b]pyridin-1-yl]-2-phenyl-acetic acid] | 1 to 10 | < 10
7 | COCCn1cc(-c2cn(S(=O)(=O)c3ccccc3)c3cc(-c4c(C)noc4C)cnc23)cn1 [P-0147, 4-[1-(benzenesulfonyl)-3-[1-(2-methoxyethyl)pyrazol-4-yl]pyrrolo[3,2-b]pyridin-6-yl]-3,5-dimethyl-isoxazole] | ≤ 1 | < 10
8 | Cc1noc(C)c1-c1cnc2c(-c3cnn(C)c3)cn([C@@H](C)c3ccccc3)c2c1 [P-0222, 3,5-dimethyl-4-[3-(1-methylpyrazol-4-yl)-1-[(1S)-1-phenylethyl]pyrrolo[3,2-b]pyridin-6-yl]isoxazole] | ≤ 1 | < 10
9 | Cc1noc(C)c1-c1cnc2c(-c3cnn(C)c3)cn(S(=O)(=O)c3cccc(F)c3)c2c1 [P-0122, 4-[1-(3-fluorophenyl)sulfonyl-3-(1-methylpyrazol-4-yl)pyrrolo[3,2-b]pyridin-6-yl]-3,5-dimethyl-isoxazole] | ≤ 1 | < 10
10 | Cc1noc(C)c1-c1cnc2c(-c3cnn(C4CCOC4)c3)cn(S(=O)(=O)c3ccccc3)c2c1 (centres unmarked) [P-0148, 4-[1-(benzenesulfonyl)-3-(1-tetrahydrofuran-3-ylpyrazol-4-yl)pyrrolo[3,2-b]pyridin-6-yl]-3,5-dimethyl-isoxazole] | ≤ 1 | < 10
11 | [2H]C([2H])(C1CCC(F)(F)CC1)n1cc(-c2cnn(C)c2)c2ncc(-c3c(C)noc3C)cc21 [P-0211, 4-[1-[dideuterio-(4,4-difluorocyclohexyl)methyl]-3-(1-methylpyrazol-4-yl)pyrrolo[3,2-b]pyridin-6-yl]-3,5-dimethyl-isoxazole] | ≤ 1 | < 10
12 | Cc1noc(C)c1-c1cnc2ccn(C(CC#N)C3CCCC3)c2c1 (centres unmarked) [P-0196, 3-cyclopentyl-3-[6-(3,5-dimethylisoxazol-4-yl)pyrrolo[3,2-b]pyridin-1-yl]propanenitrile] | ≤ 1 | < 10
13 | Cc1noc(C)c1-c1cnc2c(c1)c(S(=O)(=O)c1ccccc1)cn2-c1cnn(C)c1 [P-0185, 4-[3-(benzenesulfonyl)-1-(1-methylpyrazol-4-yl)pyrrolo[2,3-b]pyridin-5-yl]-3,5-dimethyl-isoxazole] | ≤ 1 | < 10
14 | COc1ncc(F)cc1C(O)c1c[nH]c2ncc(-c3c(C)noc3C)cc12 (centres unmarked) [P-0022, [5-(3,5-dimethylisoxazol-4-yl)-1H-pyrrolo[2,3-b]pyridin-3-yl]-(5-fluoro-2-methoxy-3-pyridyl)methanol] | ≤ 1 | < 10
15 | Cc1noc(C)c1-c1cnc2c(-c3cnn(C)c3)cn(CC3(F)CCCCC3)c2c1 [P-0212, 4-[1-[(1-fluorocyclohexyl)methyl]-3-(1-methylpyrazol-4-yl)pyrrolo[3,2-b]pyridin-6-yl]-3,5-dimethyl-isoxazole] | ≤ 1 | < 10
16 | C=CCn1cc(-c2cn(S(=O)(=O)C3CC3)c3cc(-c4c(C)noc4C)cnc23)cn1 [P-0139, 4-[3-(1-allylpyrazol-4-yl)-1-cyclopropylsulfonyl-pyrrolo[3,2-b]pyridin-6-yl]-3,5-dimethyl-isoxazole] | ≤ 1 | < 10
17 | Cc1noc(C)c1-c1cnc2c(c1)c(CC1CCN(C(=O)c3ccccc3)CC1)cn2C [P-0115, [4-[[5-(3,5-dimethylisoxazol-4-yl)-1-methyl-pyrrolo[2,3-b]pyridin-3-yl]methyl]-1-piperidyl]-phenyl-methanone] | ≤ 1 | < 10
18 | Cc1noc(C)c1-c1cnc2c(-c3cnn(C)c3)cn(Cc3ccccc3C(F)(F)F)c2c1 [P-0188, 3,5-dimethyl-4-[3-(1-methylpyrazol-4-yl)-1-[[2-(trifluoromethyl)phenyl]methyl]pyrrolo[3,2-b]pyridin-6-yl]isoxazole] | ≤ 1 | < 10
19 | Cc1noc(C)c1-c1cnc2c(-c3cnn(C)c3)cn(C(CC#N)C3CCCC3)c2c1 (centres unmarked) [P-0197, 3-cyclopentyl-3-[6-(3,5-dimethylisoxazol-4-yl)-3-(1-methylpyrazol-4-yl)pyrrolo[3,2-b]pyridin-1-yl]propanenitrile] | ≤ 1 | < 10
20 | Cc1noc(C)c1-c1cnc2c(C#CCF)cn(S(=O)(=O)C3CCCC3)c2c1 [P-0158, 4-[1-cyclopentylsulfonyl-3-(3-fluoroprop-1-ynyl)pyrrolo[3,2-b]pyridin-6-yl]-3,5-dimethyl-isoxazole] | ≤ 1 | < 10
21 | Cc1noc(C)c1-c1cnc2[nH]cc(C(O)C3CCC(F)(F)CC3)c2c1 (centres unmarked) [P-0030, (4,4-difluorocyclohexyl)-[5-(3,5-dimethylisoxazol-4-yl)-1H-pyrrolo[2,3-b]pyridin-3-yl] methanol] | ≤ 1 | < 10
22 | COc1ncc(-c2cn(S(=O)(=O)C3CCCC3)c3cc(-c4c(C)noc4C)cnc23)cn1 [P-0105, 4-[1-cyclopentylsulfonyl-3-(2-methoxypyrimidin-5-yl)pyrrolo[3,2-b]pyridin-6-yl]-3,5-dimethyl-isoxazole] | 1 to 10 | < 10
